Assays:
Format in all cases: in vivo
[1] = test system: Echinochloa crusgalli; experiment: Post-emergence test experiment (greenhouse pot, spray at 2-3 leaf stage); settings: for Echinochloa crusgalli, activity level (growth inhibition rate): post-emergence, after 3 weeks, resistant to ALS inhibitor herbicides; for Activity level (growth inhibition rate) Echinochloa crusgalli: 1000 g/ha, post-emergence spray at 2-3 leaf stage, assessed after 3 weeks, fresh weight inhibition rate
Outline: (§1)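 Weed seeds sown in soil-filled pots in greenhouse, sprayed at 2-3 leaf stage (2 weeks after sowing) with compound in acetone/tween-80 plus methyl oleate emulsible concentrate (1.5 L/ha) diluted in water. Fresh-weight growth inhibition scored after 3 weeks on 0-5 scale (5: >85%, 0: <5%).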

[2] = test system: Cyperus iria; experiment: as above; settings: post-emergence, after 3 weeks, resistant to ALS inhibitor herbicides
Outline: as §1

[3] = test system: Japonica rice; experiment: as above; settings: post-emergence, after 3 weeks
Outline: (§2)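 Activity graded levels 0-5 by fresh-weight inhibition (level 5 above 85%, level 0 below 5%), assessed 3 weeks after treatment. Plants grown in greenhouse pots were sprayed post-emergence at 2-3 leaves using acetone/tween-80 solutions with methyl oleate synergist (1.5 L/ha).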

[4] = test system: Indica rice; experiment: as above; settings: post-emergence, after 3 weeks
Outline: as §2

[5] = test system: Monochoria vaginalis; experiment: Weed control effect evaluation in rice field soil pot; settings: paddy pot, 14 days after treatment, resistant to pyrazosulfuron-ethyl and penoxsulam
Text: (§3) The activity level standard of harmful plants destruction (i. e. growth inhibition rate) is as follows: • Level 5: the growth inhibition rate is greater than 85%; • Level 4: the growth inhibition rate is equal to or greater than 60% and less than 85%; • Level 3: the growth inhibition rate is equal to or greater than 40% and less than 60%; • Level 2: the growth inhibition rate is equal to or greater than 20% and less than 40%; • Level 1: the growth inhibition rate is equal to or greater than 5% and less than 20%; • Level 0: the growth inhibition rate is less than 5%;
(§4) Transplanted rice safety evaluation and weed control effect evaluation in rice field:
Rice field soil was loaded into a 1/1,000,000 ha pot. The seeds of Monochoria vaginalis were sowed and gently covered with soil, then left to stand still in greenhouse in the state of 0.5-1 cm of water storage. It was kept at 3-4 cm of water storage thereafter. The weeds were treated by dripping the WP or SC water diluents prepared according to the common preparation method of the compounds of the present invention with pipette homogeneously to achieve specified effective amount when Monochoria vaginalis reached 0.5 leaf stage.
(§5) The fertility condition of Monochoria vaginalis 14 days and rice 21 days after the treatment of the compound of the invention with the naked eye.

[6] = test system: Galium spurium; experiment: Post-emergence test experiment (greenhouse pot, spray at 2-3 leaf stage); settings: 1000 g/ha; post-emergence spray at 2-3 leaf stage; assessed after 3 weeks; fresh weight inhibition rate
Outline: as §1

[7] = test system: Monochoria vaginalis; experiment: as above; settings: 1000 g/ha; post-emergence spray at 2-3 leaf stage; assessed after 3 weeks; fresh weight inhibition rate
Outline: as §1

[8] = test system: Digitaria sanguinalis; experiment: as above; settings: 1000 g/ha; post-emergence spray at 2-3 leaf stage; assessed after 3 weeks; fresh weight inhibition rate
Outline: as §1

[9] = test system: Abutilon theophrasti; experiment: as above; settings: 1000 g/ha; post-emergence spray at 2-3 leaf stage; assessed after 3 weeks; fresh weight inhibition rate
Outline: as §1

[10] = test system: rice (japonica rice); experiment: Transplanted rice safety evaluation in rice field soil pot; settings: 1000 g/ha, 21 days after treatment
Text: as §3, §4
In addition, the rice field soil that loaded into the 1/1,000,000 ha pot was leveled to keep water storage at 3-4 cm depth. The 3-leaf stage rice (japonica rice) was transplanted at 3 cm of transplanting depth the next day. The compound of the present invention was treated by the same way after 5 days of transplantation.
as §5

[11] = test system: Soybean; experiment: Spray drift test, application by unmanned gyroplane, soybean field at 10 meters; settings: 600 g/ha, gyroplane at 1 m, gentle breeze
Protocol: Broadleaf crops are very sensitive to hormonal herbicides, therefore crop injuries are more likely to occur in case of spray drifting. Tests were conducted in gentle breeze for the compounds of the present invention. The formulation of the compounds of the present invention was applied by DJI unmanned gyroplane with application height of 1 m and water volume of 20 kg/ha. The use rate was 600 g/ha. The active ingredient was dissolved by acetone and diluted to aqueous solution of Tween 80. There's a soybean field at 10 meters from the application area and the height of soybean plants were about 15 cm at the application time.

Row | SMILES | Echinochloa crusgalli, activity level (growth inhibition rate) ([1]; 100 g/ha) | Cyperus iria, activity level (growth inhibition rate) ([2]; 100 g/ha) | Japonica rice, activity level (growth inhibition rate) ([3]; 100 g/ha) | Indica rice, activity level (growth inhibition rate) ([4]; 100 g/ha) | Monochoria Vaginalis, activity level ([5]; 1000 g/ha) | Activity level (growth inhibition rate) Echinochloa crusgalli [1] | Echinochloa crusgalli, activity level (growth inhibition rate) ([1]; 600 g/ha, from Hunan) | Activity level (growth inhibition rate) Galium spurium [6] | Activity level (growth inhibition rate) Monochoria Vaginalis [7] | Cyperus iria, activity level (growth inhibition rate) ([2]; 600 g/ha, from Hunan) | Activity level (growth inhibition rate) Digitaria sanguinalis [8] | Activity level (growth inhibition rate) Abutilon theophrasti [9] | Japonica rice, activity level (growth inhibition rate) ([3]; 600 g/ha) | Indica rice, activity level (growth inhibition rate) ([4]; 600 g/ha) | Rice, safety level [10] | Soybean, injury level by spray drift [11] | Monochoria Vaginalis, activity level ([5]; 50 g/ha)
1 | COc1cc(OC)nc(Oc2cccc(Oc3nc(OC)cc(OC)n3)c2C(=O)O)n1 [Bispyribac-sodium, reference compound] | 1 (Level 1: the growth inhibition rate is equal to or greater than 5% and less than 20%) | 2 (Level 2: the growth inhibition rate is equal to or greater than 20% and less than 40%) | 4 (Level 4: the growth inhibition rate is equal to or greater than 60% and less than 85%) | 2 (Level 2: the growth inhibition rate is equal to or greater than 20% and less than 40%) | – | – | – | – | – | – | – | – | – | – | – | – | –
2 | Cc1c(F)nc(OC(C)C(=O)OCc2ccccc2)c(C)c1N (stereo not shown) [Compound 7] | – | – | – | – | 5 (Level 5: the growth inhibition rate is greater than 85%) | 5 (Level 5: the growth inhibition rate is greater than 85%) | 5 (Level 5: the growth inhibition rate is greater than 85%) | 5 (Level 5: the growth inhibition rate is greater than 85%) | 5 (Level 5: the growth inhibition rate is greater than 85%) | 5 (Level 5: the growth inhibition rate is greater than 85%) | 5 (Level 5: the growth inhibition rate is greater than 85%) | 5 (Level 5: the growth inhibition rate is greater than 85%) | 0 (Level 0: the growth inhibition rate is less than 5%) | 0 (Level 0: the growth inhibition rate is less than 5%) | 0 (Level 0: the growth inhibition rate is less than 5%) | – | –
3 | CC(Oc1nc(F)c(Br)c(N)c1Br)C(=O)SCc1ccccc1 (stereo not shown) [Compound 12] | – | – | – | – | 5 (Level 5: the growth inhibition rate is greater than 85%) | 5 (Level 5: the growth inhibition rate is greater than 85%) | 5 (Level 5: the growth inhibition rate is greater than 85%) | 5 (Level 5: the growth inhibition rate is greater than 85%) | 5 (Level 5: the growth inhibition rate is greater than 85%) | 5 (Level 5: the growth inhibition rate is greater than 85%) | 5 (Level 5: the growth inhibition rate is greater than 85%) | 5 (Level 5: the growth inhibition rate is greater than 85%) | 0 (Level 0: the growth inhibition rate is less than 5%) | 0 (Level 0: the growth inhibition rate is less than 5%) | 0 (Level 0: the growth inhibition rate is less than 5%) | – | –
4 | Cc1c(OC(C)C(=O)OCc2ccccc2)nc(F)c(Cl)c1N (stereo not shown) [Compound 20] | – | – | – | – | 5 (Level 5: the growth inhibition rate is greater than 85%) | 5 (Level 5: the growth inhibition rate is greater than 85%) | 5 (Level 5: the growth inhibition rate is greater than 85%) | 5 (Level 5: the growth inhibition rate is greater than 85%) | 5 (Level 5: the growth inhibition rate is greater than 85%) | 5 (Level 5: the growth inhibition rate is greater than 85%) | 5 (Level 5: the growth inhibition rate is greater than 85%) | 5 (Level 5: the growth inhibition rate is greater than 85%) | 0 (Level 0: the growth inhibition rate is less than 5%) | 0 (Level 0: the growth inhibition rate is less than 5%) | 0 (Level 0: the growth inhibition rate is less than 5%) | – | –
5 | CC(Oc1nc(F)c(Cl)c(N)c1Cl)C(=O)SCc1ccccc1 (stereo not shown) [Compound 67] | – | – | – | – | 5 (Level 5: the growth inhibition rate is greater than 85%) | 5 (Level 5: the growth inhibition rate is greater than 85%) | 5 (Level 5: the growth inhibition rate is greater than 85%) | 5 (Level 5: the growth inhibition rate is greater than 85%) | 5 (Level 5: the growth inhibition rate is greater than 85%) | 5 (Level 5: the growth inhibition rate is greater than 85%) | 5 (Level 5: the growth inhibition rate is greater than 85%) | 5 (Level 5: the growth inhibition rate is greater than 85%) | 0 (Level 0: the growth inhibition rate is less than 5%) | 0 (Level 0: the growth inhibition rate is less than 5%) | 0 (Level 0: the growth inhibition rate is less than 5%) | – | –
6 | CC(Oc1nc(F)c(Cl)c(N)c1Cl)C(=O)OCc1c(F)ccc(F)c1F (stereo not shown) [Compound 83] | – | – | – | – | – | 5 (Level 5: the growth inhibition rate is greater than 85%) | – | 5 (Level 5: the growth inhibition rate is greater than 85%) | 5 (Level 5: the growth inhibition rate is greater than 85%) | – | 5 (Level 5: the growth inhibition rate is greater than 85%) | 5 (Level 5: the growth inhibition rate is greater than 85%) | – | – | – | 0 (Level 0: the growth inhibition rate is less than 5%) | –
7 | CC(Oc1nc(F)c(Cl)c(NCc2ccco2)c1Cl)C(=O)OCc1ccccc1 (stereo not shown) [Compound 193] | – | – | – | – | – | 5 (Level 5: the growth inhibition rate is greater than 85%) | – | 5 (Level 5: the growth inhibition rate is greater than 85%) | 5 (Level 5: the growth inhibition rate is greater than 85%) | – | 5 (Level 5: the growth inhibition rate is greater than 85%) | 5 (Level 5: the growth inhibition rate is greater than 85%) | – | – | – | 0 (Level 0: the growth inhibition rate is less than 5%) | –
8 | COc1cnc(OC)n2nc(NS(=O)(=O)c3c(OCC(F)F)cccc3C(F)(F)F)nc12 [Penoxsulam, reference compound] | – | – | – | – | – | – | – | – | – | – | – | – | – | – | – | – | 1 (Level 1: the growth inhibition rate is equal to or greater than 5% and less than 20%)
